The results in this text go back to ChEMBL document CHEMBL5150041, “Discovery of novel N-(1-benzyl-1H-imidazol-2-yl)amide derivatives as melanocortin 1 receptor agonists” (Bioorg Med Chem Lett, 2022).

Where only a bound is given, the exact number is not on record here.

Series [1] deals with T1, Melanocyte-stimulating hormone receptor (Homo sapiens, UniProt Q01726). As to the kind of experiment: Agonist activity at human MC1R assessed as increase in alpha-MSH induced cAMP level. Format: functional. For orientation: Changes in cAMP serve as a functional read-out for many G protein-coupled receptors.
Target sequence in this assay (Q01726 whole entry): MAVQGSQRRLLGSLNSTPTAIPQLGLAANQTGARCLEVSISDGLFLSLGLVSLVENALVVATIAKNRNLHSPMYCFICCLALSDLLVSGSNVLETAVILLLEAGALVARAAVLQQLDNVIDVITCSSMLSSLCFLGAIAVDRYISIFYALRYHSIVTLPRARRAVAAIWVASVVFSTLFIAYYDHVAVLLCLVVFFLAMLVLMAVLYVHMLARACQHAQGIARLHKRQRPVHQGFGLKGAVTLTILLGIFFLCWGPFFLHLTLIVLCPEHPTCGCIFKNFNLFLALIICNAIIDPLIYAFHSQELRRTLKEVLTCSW
Series [2] deals with T1, Melanocyte-stimulating hormone receptor. The experiment in a line: Agonist activity at human MC1R assessed as increase in alpha-MSH induced cAMP level at 10 uM relative to control. The format is functional.
Target sequence in this assay (Q01726 whole entry, looked up): as the sequence (Q01726 whole entry) above
Series [3] can be described thus: Metabolic stability in human assessed as intrinsic clearance measured per mg protein. The format is ADME.
Series [4] deals with T1, Melanocyte-stimulating hormone receptor. As to the kind of experiment: Intrinsic agonist activity at human MC1R assessed as increase in alpha-MSH induced cAMP level by measuring maximum response relative to control. Format: functional. The following applies: filed as agonist.
Target sequence in this assay (Q01726 whole entry, looked up): as the sequence (Q01726 whole entry) above

With `CC(C)(C)N1C[C@@H](C(=O)Nc2nccn2Cc2ccccc2N2CCC(CC(=O)O)CC2)[C@H](c2ccc(F)cc2F)C1`, in series [1], the concentration for a half-maximal effect (EC50) was 1980 nM. Further, the Activity in series [2] (filed as agonist) amounted to 64%. Besides, in series [3], the CL is 39 µL/min.

Turning to `CC(C)(C)N1C[C@@H](C(=O)Nc2nccn2Cc2ccccc2)[C@H](c2ccc(F)cc2F)C1`, the concentration giving a half-maximal response (EC50) in series [1] was 4660 nM. Besides, in series [4], the Intrinsic activity came to 54%.

Regarding `CC(C)(C)N1C[C@@H](C(=O)Nc2ncnn2Cc2ccccc2)[C@H](c2ccc(F)cc2F)C1`, the EC50 in series [1] was over 10000 nM. Moreover, the Activity in series [2] amounted to 3.7%.

As to `Cn1c(NC(=O)[C@@H]2CN(C(C)(C)C)C[C@H]2c2ccc(F)cc2F)nc2ccccc21`, the EC50 in series [1] is over 10000 nM. The Activity in series [2] worked out at 2.5%.

For `CC(C)(C)N1C[C@@H](C(=O)Nc2nccn2Cc2ccc(Cl)cc2)[C@H](c2ccc(F)cc2F)C1`, the half-maximal effective concentration (EC50) in series [1] is over 10000 nM. In series [2], the Activity was determined as 18%.

Regarding `CC(C)(C)N1C[C@@H](C(=O)Nc2nccn2Cc2ccc(C(F)(F)F)cc2N2CCC(C(=O)O)CC2)[C@H](c2ccc(F)cc2F)C1`, the 50% effective concentration (EC50) in series [1] was 77 nM. Also, in series [4], the Intrinsic activity was 158%. Moreover, the CL in series [3] is 25 µL/min.

Regarding `CC(C)(C)N1C[C@@H](C(=O)Nc2nccn2Cc2ccccc2N2CCCCC2)[C@H](c2ccc(F)cc2F)C1.Cl`, the half-maximal effective concentration (EC50) in series [1] came out at 339 nM. Further, the Intrinsic activity in series [4] amounted to 77%. In series [3], the CL amounted to 610 µL/min.

For the molecule `CC(C)(C)N1C[C@@H](C(=O)Nc2nccn2Cc2ccccc2-c2ccccc2)[C@H](c2ccc(F)cc2F)C1`, in series [1], the EC50 turned out to be 527 nM. Besides, the Intrinsic activity in series [4] was found to be 79%. The CL in series [3] is 860 µL/min.

On to `CC(C)(C)N1C[C@@H](C(=O)Nc2nccn2Cc2ccccc2N2CCC(C(=O)O)CC2)[C@H](c2ccc(F)cc2F)C1`, for which, in series [1], the EC50 amounted to 460 nM. For the same molecule, the Intrinsic activity in series [4] turned out to be 104%. For the same molecule, in series [3], the CL is under 10 µL/min.

Take `CC(C)(C)N1C[C@@H](C(=O)Nc2nccn2Cc2ccccc2N2CCC(C(N)=O)CC2)[C@H](c2ccc(F)cc2F)C1.Cl`: in series [1], the EC50 was determined as 386 nM. Further, the Intrinsic activity in series [4] turned out to be 80%. Besides, in series [3], the CL was found to be 450 µL/min.

Take `CC(C)(C)N1C[C@@H](C(=O)Nc2nccn2Cc2cccc(Cl)c2)[C@H](c2ccc(F)cc2F)C1`: the EC50 in series [1] amounted to 1270 nM. In series [4], the Intrinsic activity came out at 50%.

In the case of `Cc1ccc(Cn2ccnc2NC(=O)[C@@H]2CN(C(C)(C)C)C[C@H]2c2ccc(F)cc2F)c(N2CCC(C(=O)O)CC2)c1`, the EC50 in series [1] was 318 nM. For the same molecule, the Intrinsic activity in series [4] is 101%. The CL in series [3] amounted to 28 µL/min.

As to `CC(C)(C)N1C[C@@H](C(=O)Nc2ccccc2Cc2ccccc2)[C@H](c2ccc(F)cc2F)C1`, the EC50 in series [1] was over 10000 nM. Moreover, the Activity in series [2] turned out to be 2.8%.

In the case of `CC(C)(C)N1C[C@@H](C(=O)Nc2nccn2Cc2ccccc2N2CCOCC2)[C@H](c2ccc(F)cc2F)C1.Cl`, the concentration for a half-maximal effect (EC50) in series [1] came out at 219 nM. Moreover, the Intrinsic activity in series [4] was found to be 86%. The CL in series [3] amounted to 660 µL/min.

Take `CC(C)(C)N1C[C@@H](C(=O)Nc2nc3ccccc3n2-c2ccccc2)[C@H](c2ccc(F)cc2F)C1`: the EC50 in series [1] was over 10000 nM. The Activity in series [2] amounted to 7%.

With `CC(C)(C)N1C[C@@H](C(=O)Nc2nccn2Cc2ccccc2Cl)[C@H](c2ccc(F)cc2F)C1`, the 50% effective concentration (EC50) in series [1] was determined as 1270 nM. Besides, the Intrinsic activity in series [4] turned out to be 65%.

As for `CC(C)(C)N1C[C@@H](C(=O)Nc2nc3ccccc3n2Cc2ccccc2)[C@H](c2ccc(F)cc2F)C1`, the Activity in series [2] (filed as agonist) is 53%.

Take `CC(C)(C)N1C[C@@H](C(=O)Nc2nc3ccccc3n2CCc2ccccc2)[C@H](c2ccc(F)cc2F)C1`: in series [1], the EC50 was over 10000 nM. Also, the Activity in series [2] came out at 7.5%.

Usually EC50 stands for the concentration at which the effect is half-maximal.
